Measured values reported in a melting point compilation (Tetko et al.).

Row | Structure (SMILES) | melting point [°C]
1 | CC1(C)NC(=O)N(c2cccc(C#N)c2)C1=O | 159 to 161
2 | O=C(O)c1csc(Cc2cccc(F)c2)n1 | 149 to 151
3 | c1cnnc(NCC2CNCCO2)c1 (centres undefined) | 148 to 150
4 | OC(CCc1ccccc1)CCc1ccccc1 | 44 to 46
5 | NC(=O)NC(=O)OCCCCl | 165 to 167
6 | Cc1cc(C)c(C#N)c(N2CCCC2)n1 | 54 to 56
7 | O=S(=O)(Cl)c1csc2ccc(F)cc12 | 129 to 131
8 | Clc1nc(-c2cccnc2)nc2ccccc12 | 180 to 182
9 | O=C(O)c1cc([N+](=O)[O-])c[nH]1 | 198 to 200
10 | Nc1nc(-c2ccc3ccccc3n2)n[nH]1 | 297 to 299
11 | Sc1nnc(-c2ccc(Cl)cc2)n1Cc1ccco1 | 117 to 119
12 | CC(C)(C)c1noc(C(N2CCOCC2)N2CCOCC2)n1 | 80 to 82
13 | CCCc1cc(C(=O)O)sc1C | 94 to 96
14 | COc1ccc(C(N)=NO)cc1OC | 164 to 166
15 | Sc1nnnn1C1CCOCC1 | 154 to 156
16 | CN1CCN(C(=O)c2ccc(Br)cc2)CC1 | 81 to 83
17 | CC(C)c1nnc(S)n1N | 117 to 119
18 | CN(C)C(=O)Cn1cc(C(=O)O)nn1 | 199 to 201
19 | NS(=O)(=O)c1ccccc1I | 161 to 163
20 | NC(=O)NCc1cccc(F)c1 | 134 to 136
21 | O=C(O)CCc1ncc(-c2ccc(F)cc2F)o1 | 169 to 171
22 | NC(=S)Cc1cccc(Cl)c1 | 105 to 107
23 | CCOC(=O)c1cnc(C(=O)O)c(Cl)c1 | 114 to 116
24 | Nc1cc(N2CCCC2=O)ccc1F | 106 to 108

Row | Structure (SMILES) | melting point [°C]
25 | CCS(=O)(=O)c1cccc(F)c1N | 91 to 93
26 | CC(C)Cn1ncc2cc(C(=O)O)cnc21 | 175 to 177
27 | Nc1nonc1I | 90 to 92
28 | COc1ccccc1-c1cccc(N)c1 | 66 to 68
29 | C#CCN1CCCCC1C(=O)O (centres undefined) | 177 to 179
30 | O=C1NCCNC1c1ccccc1 (centres undefined) | 139 to 141
31 | NC(=O)c1ccccc1I | 183 to 185
32 | O=C(O)c1cc(=O)[nH]c2ccc([N+](=O)[O-])cc12 | 375 to 377
33 | CC1CC(=O)NC1=O (centres undefined) | 61 to 63
34 | CC1(C)OC(=O)C(=Cc2ccc(I)o2)C(=O)O1 | 124 to 126
35 | N#Cc1cccc(-n2ccnc2)n1 | 97 to 99
36 | Cc1ccc(S(=O)(=O)N2CCCCC2C(=O)O)cc1 (centres undefined) | 100 to 102
37 | Cc1cc(=O)n2nc(N)sc2n1 | 335 to 337
38 | NC(CCO)c1ccc(F)cc1 (centres undefined) | 67 to 69
39 | Cc1sc(-n2cccc2)c(C(=O)O)c1C | 156 to 158
40 | c1ccc(COc2cccc3cn[nH]c23)cc1 | 126 to 128
41 | S=C=Nc1cccc2ncccc12 | 60 to 62
42 | O=C(O)CCc1cncc(F)c1 | 165 to 167
43 | NCc1noc(-c2ccco2)n1 | 143 to 145
44 | CNC(=O)c1ccc(Cl)nn1 | 170 to 172
45 | Cc1nc(COc2ccccc2/C=C/C(=O)O)cs1 | 143 to 145
46 | NS(=O)(=O)c1ccc(Sc2ccccc2C(=O)O)cc1 | 226 to 228
47 | CC(C)c1nnn[nH]1 | 104 to 106
48 | O=C(O)CCC(=O)N1CCC(O)CC1 | 121 to 123

Row | Structure (SMILES) | melting point [°C]
49 | Cc1cc(C)n(CCCCl)n1 | 202 to 204
50 | Nc1ncnc(Nc2ccc(F)cc2)n1 | 249 to 251
51 | O=S(=O)(Cl)c1cnn(Cc2ccccc2)c1 | 57 to 59
52 | Cc1ccc(N)cc1N1CCCS1(=O)=O | 128 to 130
53 | N#Cc1c(F)cccc1OC(F)F | 29 to 31
54 | N#Cc1ccccc1-c1ccc(CN)cc1 | 53 to 55
55 | NC(=O)c1cc(N)ccc1Cl | 153 to 155
56 | Nc1ccc(C(=O)N2CCCC2c2ccccc2)cc1 (centres undefined) | 120 to 122
57 | Nc1ccn(Cc2cccc3cccnc23)n1 | 120 to 122
58 | Cc1c(C(=O)O)sc2nc(CCl)[nH]c(=O)c12 | 322 to 324
59 | CS(=O)(=O)N1CCN(S(=O)(=O)Cl)CC1 | 222 to 224
60 | NCC(O)c1cccc(F)c1 (centres undefined) | 42 to 44
61 | CCCCNc1ccc(S(N)(=O)=O)cc1N | 130 to 132
62 | O=Cc1ccc(-c2ccc(Cl)cc2C(F)(F)F)s1 | 58 to 60
63 | O=C1CCCc2sccc21 | 38 to 40
64 | Cc1csc(-c2cnc(C)[nH]c2=O)n1 | 302 to 304
65 | O=Cc1c(O)cccc1Cl | 52 to 54
66 | N#Cc1ccc(F)c(CO)c1 | 48 to 50
67 | O=C(O)CCc1nc2ccccc2c(=O)n1C1CC1 | 183 to 185
68 | Nc1cc(-c2ccc(Br)cc2)ncn1 | 251 to 253
69 | O=C1OCCN1S(=O)(=O)Cl | 94 to 96
70 | O=C(O)c1ccncc1Br | 237 to 239

Second part, the compound after the results:

Row | melting point [°C] | Structure (SMILES)
71 | 208 to 210 | CC(C)(C)CNC(=O)Nc1ccc(Cl)c(C(=O)O)c1
72 | 182 to 184 | CC(C)C(NC(=O)OC(C)(C)C)C(N)=NO (centres undefined)
73 | 48 to 50 | CC(C)(CCCc1ccccc1)C(=O)O
74 | 102 to 104 | COc1ccc(NCc2ccc(N(C)C)cc2)cc1
75 | 76 to 78 | COC(=O)c1ncccc1O
76 | 153 to 155 | CC(C)(C)OC(=O)Nc1ccc(CC(=O)O)cc1
77 | 218 to 220 | O=C(O)Cn1cc(C(F)(F)F)ccc1=O
78 | 177 to 179 | CSc1ccc(C=CC(=O)O)cc1
79 | 144 to 146 | CC(C)(C)OC(=O)NCc1ccc(C(=O)O)c(C2CC2)n1
80 | 89 to 91 | COc1cc(C=O)ccc1OC(=O)OC(C)(C)C
81 | 192 to 194 | O=C(CCCl)Nc1ccc(N2CCOCC2)cc1
82 | 100 to 102 | CC(Cl)C(=O)NCc1ccc(Cl)cc1 (centres undefined)
83 | 96 to 98 | CC(=O)NCCCc1ccc(C(=O)CCl)cc1
84 | 117 to 119 | COC(=O)c1ccc(CN2C(=O)CSC2=O)cc1
85 | 92 to 94 | CC(Cl)C(=O)Nc1ccccc1C(F)(F)F (centres undefined)
86 | 108 to 110 | CCOC(=O)c1c(N)sc(C(=O)OC(C)(C)C)c1C
87 | 51 to 53 | COCc1ccccc1CNC(=O)CCl

Row | melting point [°C] | Structure (SMILES)
88 | 174 to 176 | CC(CO)NC(=O)c1ccc(N)cc1 (centres undefined)
89 | 130 to 132 | CCC(CC)(CNC(=O)OC(C)(C)C)C(=O)O
90 | 200 to 202 | CC(=O)Nc1ccc(S(=O)(=O)N2CCC(=NO)CC2)cc1
91 | 106 to 108 | CC(C)(C)OC(=O)NCc1nnc(S)o1
92 | 225 to 227 | O=C(O)c1cccc(S(=O)(=O)NCc2ccccc2)c1
93 | 166 to 168 | O=C(O)C=Cc1cc(Cl)ccc1OCc1ccc(F)cc1
94 | 68 to 70 | C=CC(=O)Nc1ccccc1OC
95 | 171 to 173 | CC(=O)NCc1ccc(C(=O)O)o1
96 | 158 to 160 | CC(=O)CSc1ccccc1C(=O)O
97 | 104 to 106 | CCS(=O)(=O)c1ccc(Cl)cc1C(=O)O
98 | 199 to 201 | O=C(O)c1cccn1Cc1ccncc1
99 | 230 to 232 | CS(=O)(=O)Nc1cccc(C(=O)O)c1
100 | 156 to 158 | O=C(O)CNC(=O)c1ccc(Oc2ccccc2)cc1
101 | 176 to 178 | O=C(O)[C@@H]1CCCN1C(=O)Nc1ccc2c(c1)OCCO2
102 | 135 to 137 | CC(=CC(=O)O)c1cccc(C(F)(F)F)c1
103 | 161 to 163 | Cc1ccc(NC(=O)NCC2CCCNC2)cc1 (centres undefined)
104 | 152 to 154 | Cc1ccc(S(=O)(=O)N(C)c2ccc(OCC(=O)O)cc2)cc1
